Laboratory results: patent US20140073628A1, “BENZOXAZEPINES ASN INHIBITORS OF P13K/M TOR AND METHODS OF THEIR USE AND MANUFACTURE” (priority 2010, published 2014)

Experiments:
PI3Kα = PI3Kα (Homo sapiens, UniProt P42336); test: PI3K biochemical assay (PI3K-alpha, luciferase-luciferin ATP consumption); conditions: 3 nM enzyme, 1 μM ATP, 10 μM PIP2; percent of ATP consumed
Experimental: PI3Kα activity was measured as the percent of ATP consumed following the kinase reaction using luciferase-luciferin-coupled chemiluminescence. Reactions were conducted in 384-well white, medium binding microtiter plates (Greiner). Kinase reactions were initiated by combining test compounds, ATP, substrate (PIP2), and kinase in a 20 μL volume in a buffer solution. The standard PI3Kalpha assay buffer was composed 50 mM Tris, pH 7.5, 1 mM EGTA, 10 mM MgCl2, 1 mM DTT and 0.03% CHAPS. The standard assay concentrations for enzyme, ATP, and substrate were 3 nM, 1 μM, and 10 μM, respectively. The reaction mixture was incubated at ambient temperature for approximately 2 h. Following the kinase reaction, a 10 μL aliquot of luciferase-luciferin mix (Promega Kinase-Glo) was added and the chemiluminescence signal measured using a Victor2 or EnVision (Perkin Elmer). Total ATP consumption was limited to 40-60% and IC50 values of control compounds correlate well with literature references. Substituting PI3Kα with PI3Kβ, PI3Kγ, or […], the inhibitory activity of the compounds for the other isoforms of PI3K were measured. For the PI3Kβ and PI3Kδ assays, enzyme concentrations were 10 nM and 4 nM, respectively. For the PI3Kγ assay, enzyme concentration was 40 nM, the incubation time was 1 h, and the concentration of MgCl2 in the assay buffer was 5 mM.

mTOR/GbL/Raptor (mTORC1) = mTOR/GbL/Raptor (mTORC1) (Homo sapiens, UniProt P42345); test: mTOR/GbL/Raptor (mTORC1) ELISA assay; type: biochemical; conditions: phosphorylation of 4E-BP1; 0.2 nM mTORC1, 10 μM ATP, 50 nM NHis-tagged 4E-BP1
Experimental: mTOR/GbL/Raptor (mTORC1) ELISA Assay
The measurement of mTORC1 enzyme activity was performed in an ELISA assay format following the phosphorylation of 4E-BP1 protein. All experiments were performed in the 384-well format. Generally, 0.5 μL DMSO containing varying concentrations of the test compound was mixed with 15 μL enzyme solution. Kinase reactions were initiated with the addition of 15 μL of substrates-containing solution. The assay conditions were as follows; 0.2 nM mTORC1, 10 μM ATP and 50 nM NHis-tagged 4E-BP1 in 20 mM Hepes, pH 7.2, 1 mM DTT, 50 mM NaCl, 10 mM MnCl2, 0.02 mg/mL BSA, 0.01% CHAPS, 50 mM β-glycerophosphate. Following an incubation of 120 minutes at ambient temperature, 20 μL of the reaction volume was transferred to a Ni-Chelate-coated 384-well plate. The binding step of the 4E-BP1 protein proceeded for 60 minutes, followed by washing 4 times each with 50 μL of Tris-buffered saline solution (TBS). Anti-phospho-4E-BP1 rabbit-IgG (20 μL, 1:5000) in 5% BSA-TBST (0.2% Tween-20 in TBS) was added and further incubated for 60 minutes. Incubation with a secondary HRP-tagged anti-IgG was similarly performed after washing off the primary antibody (4 washes of 50 μL). Following the final wash step with TBST, 20 μL of SuperSignal ELISA Femto (Pierce Biotechnology) was added and the luminescence measured using an EnVision plate reader.

PI3Kα, sequence (P42336 whole entry): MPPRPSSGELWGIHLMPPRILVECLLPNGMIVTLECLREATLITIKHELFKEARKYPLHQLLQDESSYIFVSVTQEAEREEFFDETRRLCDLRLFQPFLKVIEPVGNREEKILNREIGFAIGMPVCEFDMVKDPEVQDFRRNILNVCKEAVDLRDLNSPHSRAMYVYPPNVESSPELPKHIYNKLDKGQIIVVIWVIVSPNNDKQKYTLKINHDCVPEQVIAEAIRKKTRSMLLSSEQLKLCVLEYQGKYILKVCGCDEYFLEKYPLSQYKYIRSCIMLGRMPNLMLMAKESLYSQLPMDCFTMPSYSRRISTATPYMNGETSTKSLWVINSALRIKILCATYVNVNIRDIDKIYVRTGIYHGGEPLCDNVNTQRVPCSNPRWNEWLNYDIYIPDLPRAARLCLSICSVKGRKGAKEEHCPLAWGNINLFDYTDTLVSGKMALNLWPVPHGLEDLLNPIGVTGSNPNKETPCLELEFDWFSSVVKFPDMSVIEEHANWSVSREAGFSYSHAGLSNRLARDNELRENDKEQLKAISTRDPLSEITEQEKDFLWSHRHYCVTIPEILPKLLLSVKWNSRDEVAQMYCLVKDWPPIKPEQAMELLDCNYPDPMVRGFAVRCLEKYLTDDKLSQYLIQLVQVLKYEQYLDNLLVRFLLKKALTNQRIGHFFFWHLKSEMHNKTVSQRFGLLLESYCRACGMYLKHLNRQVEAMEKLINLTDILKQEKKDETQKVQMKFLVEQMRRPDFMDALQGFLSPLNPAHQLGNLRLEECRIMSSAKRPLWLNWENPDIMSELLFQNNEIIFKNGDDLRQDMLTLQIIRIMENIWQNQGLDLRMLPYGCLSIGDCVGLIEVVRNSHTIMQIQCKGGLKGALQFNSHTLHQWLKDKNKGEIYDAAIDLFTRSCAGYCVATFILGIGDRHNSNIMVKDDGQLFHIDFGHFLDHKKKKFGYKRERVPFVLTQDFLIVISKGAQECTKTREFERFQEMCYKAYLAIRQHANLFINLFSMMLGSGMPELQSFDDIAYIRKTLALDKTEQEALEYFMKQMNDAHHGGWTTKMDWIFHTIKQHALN
PI3Kα, sequence (P27986 whole entry partner): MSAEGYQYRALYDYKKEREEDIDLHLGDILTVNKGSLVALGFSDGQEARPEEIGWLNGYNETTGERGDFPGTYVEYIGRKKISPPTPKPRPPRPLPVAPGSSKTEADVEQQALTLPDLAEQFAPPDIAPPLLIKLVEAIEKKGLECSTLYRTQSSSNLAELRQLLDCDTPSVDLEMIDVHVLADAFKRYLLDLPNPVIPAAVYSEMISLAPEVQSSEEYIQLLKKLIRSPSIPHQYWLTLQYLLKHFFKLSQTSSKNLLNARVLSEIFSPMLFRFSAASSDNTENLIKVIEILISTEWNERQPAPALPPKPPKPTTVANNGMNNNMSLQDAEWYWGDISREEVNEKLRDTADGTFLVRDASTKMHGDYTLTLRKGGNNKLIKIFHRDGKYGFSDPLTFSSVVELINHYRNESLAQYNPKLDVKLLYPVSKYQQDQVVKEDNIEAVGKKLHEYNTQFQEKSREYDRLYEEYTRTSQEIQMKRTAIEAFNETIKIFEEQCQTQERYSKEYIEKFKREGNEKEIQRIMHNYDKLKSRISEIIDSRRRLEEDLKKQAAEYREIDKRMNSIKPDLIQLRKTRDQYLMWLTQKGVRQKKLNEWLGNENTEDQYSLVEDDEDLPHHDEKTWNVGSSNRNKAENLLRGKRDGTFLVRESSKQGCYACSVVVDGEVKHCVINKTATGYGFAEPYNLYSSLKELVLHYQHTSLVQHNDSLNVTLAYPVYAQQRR

SMILES: Cc1nc2cc(-c3ccc4c(c3)CN(c3nc(NC(C)C)nc(C)c3Cc3ccc(F)cc3)CCO4)ccc2[nH]1 [Compound 19, 5-[(4-fluorophenyl)methyl]-4-methyl-6-[7-(2-methyl-1H-benzimidazol-5-yl)-2,3-dihydro-1,4-benzoxazepin-4(5H)-yl]-N-(1-methylethyl)pyrimidin-2-amine]
- IC50 (PI3Kα): 500 to 2500 nM
- IC50 (mTOR/GbL/Raptor (mTORC1)): 100 to 500 nM

SMILES: Cc1cc(N2CCOc3ccc(-c4ccc5[nH]cnc5c4)cc3C2)nc(N)n1 [Compound 43, 4-[7-(1H-benzimidazol-5-yl)-2,3-dihydro-1,4-benzoxazepin-4(5H)-yl]-6-methylpyrimidin-2-amine]
- IC50 (PI3Kα): 500 to 2500 nM
- IC50 (mTOR/GbL/Raptor (mTORC1)): 500 to 2500 nM
